Laboratory results: patent US9266827B2, “Bicyclic sulfone compounds for inhibition of RORgamma activity and the treatment of disease” (Merck Sharp & Dohme Corp., priority 2012, dated 2016)

molecular target: T1, RORγ-LBD (Homo sapiens, UniProt P51449); assay: RORγ-Ligand Binding Domain (LBD) TR-FRET Assay; assay type: biochemical; settings: recombinant HIS-tagged RORγ-LBD lysate, biotinylated SRC1-2 LXXLL peptide
T1 construct: made in house; host or cells: SF9 insect cells, baculovirus; crude lysate used
T1 sequence (P51449 269-508 limits assumed): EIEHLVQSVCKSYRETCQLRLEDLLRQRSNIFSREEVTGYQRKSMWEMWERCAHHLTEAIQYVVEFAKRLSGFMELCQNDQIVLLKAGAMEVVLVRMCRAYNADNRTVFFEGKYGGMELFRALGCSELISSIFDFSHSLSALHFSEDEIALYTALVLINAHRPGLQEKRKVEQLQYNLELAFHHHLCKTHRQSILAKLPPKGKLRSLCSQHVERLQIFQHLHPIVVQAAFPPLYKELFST
Experimental: Recombinant, HIS-tagged RORγ-LBD was expressed in SF9 cells using a baculovirus expression system. Cells were lysed and the lysate was used as a source for RORγ-LBD for the assay. A 1:80 dilution of RORγ-LBD lysate in assay buffer (25 mM HEPES pH 7.0, 100 mM NaCl, 0.01% Tween, 0.1% BSA) was prepared and 5 μL was added to each well (RORγ-LBD final concentration ˜3 nM). Control wells received lysate from SF9 cells not expressing RORγ-LBD.
Compounds to be tested were diluted to 100× final test concentration in DMSO and further diluted to 4× final test concentration using assay buffer to provide the test compound mixture. An aliquot (5 μL) of the test compound mixture was added to each well.
A 4× stock of biotinylated-LXXLL peptide from SRC1-2 (Biotin-[…]) was prepared in assay buffer and a 5 μL aliquot added to each well (450 nM final concentration). A 4× solution of europium tagged anti-HIS antibody (2 nM final concentration) and APC conjugated streptavidin (60 nM final concentration) were prepared and a 5 μL aliquot added to each well.
The final assay mixture was incubated for 4 hours to overnight, and the fluorescence signal was measured on an Envision plate reader: (Excitation filter=340 nm; APC emission=665 nm; Europium emission=615 nm; dichroic mirror=D400/D630; delay time=100 μs, integration time=200 μs).
EC50 values for test compounds were calculated from the quotient of the fluorescence signal at 665 nm divided by the fluorescence signal at 615 nm using GraphPad Prism software

EC50 [nM] | SMILES
< 150 | O=C(Nc1ccc2c(c1)C(S(=O)(=O)c1ccc(C(F)(F)F)cc1)CCC2)c1c(F)cccc1Cl (stereo not shown) [Compound 1, 2-Chloro-6-fluoro-N-[8-(4-trifluoromethylbenzenesulfonyl)-5,6,7,8-tetrahydronaphthalen-2-yl]benzamide]
< 150 | O=C(Nc1ccc2c(c1)C(S(=O)(=O)c1ccc(C(F)(F)F)cc1)CCC2)c1c(Cl)cccc1C(F)(F)F (stereo not shown) [IV-1]
< 150 | O=C(Nc1ccc2c(c1)C(S(=O)(=O)c1ccc(C(F)(F)F)cc1)CCC2)c1c(F)cccc1C(F)(F)F (stereo not shown) [IV-2]
< 150 | O=C(Nc1ccc2c(c1)C(S(=O)(=O)c1ccc(C(F)(F)F)cc1)CCC2)c1c(F)cccc1F (stereo not shown) [IV-4]
